In paper PMC10135033, “Sulfonamidoboronic Acids as “Cross-Class” Inhibitors of an Expanded-Spectrum Class C Cephalosporinase, ADC-33, and a Class D Carbapenemase, OXA-24/40: Strategic Compound Design to Combat Resistance in Acinetobacter baumannii” (Antibiotics, 2023):
pIC50, pKi: −log10 of the molar value. Read-outs that look alike come from different tables or passages of the source.

Tests used:
[1] = system: KPC-2; parameters: method as in PMID 26729496; settings: cited from earlier work
[2] = system: E. coli DH10B pBCSK, blaADC-7; parameters: method as in PMID 29144724; settings: with CR167; cited from earlier work
[3] = biological target: class C β-lactamase AmpC; parameters: method as in PMID 20945905, PMID 23043117; settings: AmpC from E. coli; cited from earlier work
[4] = system: A. baumannii ATCC 17978 native ADC KO, ADC-33 pQF1266; assay: Antimicrobial susceptibility testing, broth microdilution; type: cell-based; settings: Acinetobacter baumannii
Procedure: The inhibitory effects of both compounds were tested against ADC-33 and OXA-24/-40 in A. baumannii, their native host. ATCC 17978, with its intrinsic chromosomal ADC knocked out (intrinsic OXA still present), was used in these experiments. In this isolate, the ADC MICs were not lowered by the inhibitors as much as they were against the E. coli background (Table 4).
Plasmid pBCSK- containing the blaADC-33 gene was digested with PvuII, which released the blaADC-33 gene, along with the lac promoter, which drives expression. This PvuII fragment was cloned into the SmaI site of the pQF1266 plasmid.
pWH1266 is a vector that replicates in A. baumannii, and the […] pWH1266 construct was generated as follows. The TEM gene was removed using inverse PCR, and an Xba1 site was engineered into the vector. blaOXA-24/40 and its upstream XerC/XerD were amplified from strain NM55. The amplified gene was cloned into the Xba1 site of the altered pWH1266 vector. The construct was confirmed using PCR and sequencing. Both blaADC-33 pQF1266 and […] pWH1266 were then expressed in A. baumannii ATCC 17978 that had the intrinsic chromosomal ADC gene knocked out.
The chromosomal blaADC-51 gene in ATCC 17978 was deleted and replaced with an apramycin resistance cassette using the recombineering method described by Tucker et al.. Primers used for this deletion were: Del AmpC-apra.For: […]; and Del AmpC-apra.Rev: […]. The correct deletion mutant was confirmed using PCR and sequencing.
(§1) Testing of susceptibility to standard antibiotics was performed with broth microdilution according to CLSI guidelines. MICs for CAZ, CTX, FEP, and IMI were determined using cation-adjusted Mueller–Hinton broth according to CLSI methods, and CR167 or 6b was used at a fixed concentration of 10 mg/L. All MICs were interpreted according to the 2022 Clinical and Laboratory Standards Institute (CLSI) guidelines.

[5] = system: E. coli DH10B, ADC-7 in pBCSK-; assay: as above; type: cell-based; settings: Escherichia coli
Procedure: (§2) Based upon the inhibitor kinetics (Ki determinations), CR167 and the sulfonamidoboronic acid 6b were tested against E. coli strains expressing ADC-7 and ADC-33 cloned into pBCSK- (DH10B) (Table 3).
(§3) blaADC-7 pBCSK- and blaADC-33 pBCSK- were cloned and expressed in E. coli DH10B cells as previously described.
as §1

[6] = system: E. coli DH10B, ADC-33 in pBCSK-; assay: as above; type: cell-based; settings: Escherichia coli
Procedure: as §2, §3, §1

[7] = system: SHV-1; settings: cited from earlier work
[8] = biological target: ADC-7; parameters: method as in PMID 29144724; settings: cited from earlier work
[9] = ATCC17978, read-out: MIC of CAZ with BLI
[10] = ATCC17978, read-out: MIC of CTX with BLI
[11] = ATCC17978, read-out: MIC of FEP with BLI

Row | SMILES | pIC50 [1] | MIC for CAZ with CR167 [2] | pKi [3] | MIC [4, 9] | MIC [4, 10] | MIC [4, 11] | MIC ([5]; read-out: MIC of CAZ with BLI) | MIC ([5]; read-out: MIC of CTX with BLI) | MIC ([5]; read-out: MIC of FEP with BLI) | MIC ([6]; read-out: MIC of CAZ with BLI) | MIC ([6]; read-out: MIC of CTX with BLI) | pIC50 [7] | pKi [8]
1 | O=C(O)c1cccc(CS(=O)(=O)NCB(O)O)c1 [CR167] | 6.70 | 1 µg/mL | 8.89 | 32 µg/mL | 16 µg/mL | 4 µg/mL | 4 µg/mL | 2 µg/mL | 0.12 µg/mL | 64 µg/mL | 2 µg/mL | 6.37 | 6.80
2 | C[C@@H](NS(=O)(=O)Cc1cccc(C(=O)O)c1)B(O)O [6b] |  |  |  | 64 µg/mL | 32 µg/mL | 4 µg/mL | 4 µg/mL | 2 µg/mL | 0.12 µg/mL | 64 µg/mL | 4 µg/mL |  | 
